In ChEMBL document CHEMBL5518238, “Structure-Activity Relationship (SAR) Studies of Novel Monovalent AR/AR-V7 Dual Degraders with Potent Efficacy against Advanced Prostate Cancer” (J Med Chem, 2024):
Active and inactive are the calls of the source. The rule behind the calls is not given here.

Assays:
CWR22R [1] = assay: Induction of apoptosis in human 22Rv1 cells assessed as effect on Bcl-2 level incubated for 24 hrs by Western blot analysis; format: functional, cell-based; conditions: dose <= 10.0 µM
[2] = tested on: Androgen receptor (Homo sapiens), P10275 [UNDEFINED MUTATION]; assay: Binding affinity to AR-V7 (unknwon origin) assessed as thermal stabilization at 10 uM incubated for 2 hrs by CETSA analysis; format: cell-based; conditions: 22Rv1
[3] = Toxicity in NSG mouse xenografted with human 22Rv1 cells assessed as heart damage t at 30 mg/kg, IG administered once daily for 21 days by H and E staining based analysis; format: organism-based, CWR22R; conditions: in vivo, po, 504 h, time 21 day
CWR22R [4] = assay: Downregulation of KLK3 mRNA expression in human 22Rv1 cells at 10 uM incubated for 24 hrs by qRT-PCR analysis; format: functional, cell-based
CWR22R [5] = assay: Downregulation of BCHE mRNA expression in human 22Rv1 cells at 10 uM incubated for 24 hrs by qRT-PCR analysis; format: functional, cell-based
CWR22R [6] = assay: Downregulation of STEAP4 mRNA expression in human 22Rv1 cells at 10 uM incubated for 24 hrs by qRT-PCR analysis; format: functional, cell-based
CWR22R [7] = assay: Antitumor activity against human 22Rv1 cells xenografted in NSG mouse assessed as decrease in AR level in tumor at 10 mg/kg, IG administered once daily for 3 days by […] based analysis; format: functional, organism-based; conditions: time 3.0 day
DU-145 = assay: Antiproliferative activity against AR-negative human DU-145 cells assessed as inhibition of cell growth incubated for 48 hrs by CCK-8 assay; format: functional, cell-based; conditions: DU-145, 48 h
CWR22R [8] = assay: Induction of apoptosis in human 22Rv1 cells assessed as effect on Bcl-xL level incubated for 24 hrs by Western blot analysis; format: functional, cell-based; conditions: dose <= 10.0 µM
CWR22R [9] = assay: Downregulation of MMP16 mRNA expression in human 22Rv1 cells at 10 uM incubated for 24 hrs by qRT-PCR analysis; format: functional, cell-based
[10] = target: T1, Androgen receptor (Homo sapiens) (UniProt P10275); assay: Induction of AR degradation in human 22Rv1 cells at 10 uM incubated for 24 hrs in presence of MDM2 by Western blot analysis; format: cell-based
T1 sequence (whole entry): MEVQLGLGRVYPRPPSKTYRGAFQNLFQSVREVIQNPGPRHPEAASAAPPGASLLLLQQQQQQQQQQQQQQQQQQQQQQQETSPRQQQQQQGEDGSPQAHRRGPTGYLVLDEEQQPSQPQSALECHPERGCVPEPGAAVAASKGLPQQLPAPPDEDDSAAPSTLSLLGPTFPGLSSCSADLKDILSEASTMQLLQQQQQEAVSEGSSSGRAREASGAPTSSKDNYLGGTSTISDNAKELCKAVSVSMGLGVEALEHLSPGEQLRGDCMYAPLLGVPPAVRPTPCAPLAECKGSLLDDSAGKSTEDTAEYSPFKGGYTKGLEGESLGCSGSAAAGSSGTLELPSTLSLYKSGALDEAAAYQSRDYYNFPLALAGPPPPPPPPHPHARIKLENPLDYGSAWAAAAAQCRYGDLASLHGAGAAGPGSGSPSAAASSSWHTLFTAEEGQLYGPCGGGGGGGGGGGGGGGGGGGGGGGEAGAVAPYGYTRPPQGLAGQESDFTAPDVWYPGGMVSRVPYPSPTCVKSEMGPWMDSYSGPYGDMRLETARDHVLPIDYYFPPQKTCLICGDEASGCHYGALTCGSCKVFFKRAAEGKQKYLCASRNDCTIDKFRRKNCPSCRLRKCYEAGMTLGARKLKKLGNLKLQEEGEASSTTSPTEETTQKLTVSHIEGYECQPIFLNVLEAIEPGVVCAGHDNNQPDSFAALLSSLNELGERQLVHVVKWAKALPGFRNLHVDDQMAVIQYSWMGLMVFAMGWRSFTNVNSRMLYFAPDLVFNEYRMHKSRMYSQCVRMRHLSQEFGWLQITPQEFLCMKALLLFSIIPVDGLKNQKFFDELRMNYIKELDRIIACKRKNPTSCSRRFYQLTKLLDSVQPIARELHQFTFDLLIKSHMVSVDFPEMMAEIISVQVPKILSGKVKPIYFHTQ

CWR22R [11] = assay: Effect on ER level in human 22Rv1 at 2.5 to 20 uM incubated for 24 hrs by Western blot analysis; format: functional, cell-based; conditions: dose 2.5-20 µM
[12] = AUC (0 to infinity) in Sprague-Dawley rat at 5 mg/kg, iv by LC-MS/MS analysis; format: ADME, organism-based; conditions: in vivo
CWR22R [13] = assay: Downregulation of AR-V7 mRNA expression in human 22Rv1 cells at 5 to 10 uM incubated for 12 hrs by qRT-PCR analysis; format: functional, cell-based; conditions: dose 5-10 µM
CWR22R [14] = assay: Antitumor activity against human 22Rv1 cells xenografted in NSG mouse assessed as change in tumor volume at 30 mg/kg, IG administered once daily for 21 days; format: functional, organism-based; conditions: time 21.0 day
CWR22R [15] = assay: Downregulation of SLC26A2 mRNA expression in human 22Rv1 cells at 10 uM incubated for 24 hrs by qRT-PCR analysis; format: functional, cell-based
CWR22R [16] = assay: Downregulation of AR-V7 expression in human 22Rv1 cells at 5 uM incubated for 24 hrs by Western blot analysis; format: functional, cell-based
CWR22R [17] = assay: Downregulation of MYC mRNA expression in human 22Rv1 cells at 10 uM incubated for 24 hrs by qRT-PCR analysis; format: functional, cell-based
CWR22R [18] = assay: Downregulation of P3H3 mRNA expression in human 22Rv1 cells at 10 uM incubated for 24 hrs by qRT-PCR analysis; format: functional, cell-based
CWR22R [19] = assay: Antitumor activity against human 22Rv1 cells xenografted in NSG mouse assessed as decrease in AR-V7 level in tumor at 10 mg/kg, IG administered once daily for 3 days by […] based analysis; format: functional, organism-based; conditions: time 3.0 day
[20] = tested on: Androgen receptor (Homo sapiens), P10275 [UNDEFINED MUTATION]; assay: Induction of AR-V7 degradation in human 22Rv1 cells at 10 uM incubated for 24 hrs in presence of […] by Western blot analysis; format: cell-based
[21] = tested on: Androgen receptor (Homo sapiens), P10275 [UNDEFINED MUTATION]; assay: (§1) Induction of AR-V7 degradation in human 22Rv1 cells incubated for 24 hrs by Western blot analysis; format: cell-based; conditions: dose 1-10 µM
Androgen receptor = Androgen receptor (Homo sapiens, UniProt P10275); assay: as §1; format: cell-based
[22] = MRT (0 to t) in Sprague-Dawley rat at 50 mg/kg, po by LC-MS/MS analysis; format: ADME, organism-based; conditions: in vivo
[23] = AUC (0 to infinity) in Sprague-Dawley rat at 50 mg/kg, po by LC-MS/MS analysis; format: ADME, organism-based; conditions: in vivo
CWR22R [24] = assay: Induction of cell cycle arrest in human 22Rv1 cells assessed as accumulation of cells at G0/G1 phase at 5 uM incubated for 24 hrs by DAPI staining based flow cytometric analysis (reference value: 26.3 %); format: functional
CWR22R [25] = assay: Effect on MR level in human 22Rv1 at 2.5 to 20 uM incubated for 24 hrs by Western blot analysis; format: functional, cell-based; conditions: dose 2.5-20 µM
CWR22R [26] = assay: Induction of apoptosis in human 22Rv1 cells at 5 uM incubated for 24 hrs by Annexin V-FITC/PI staining based flow cytometric analysis (reference value: 3.70 %); format: functional
[27] = Toxicity in NSG mouse xenografted with human 22Rv1 cells assessed as spleen damage t at 30 mg/kg, IG administered once daily for 21 days by H and E staining based analysis; format: organism-based, CWR22R; conditions: in vivo, po, 504 h, time 21 day

With CC1(C)C(=O)N(c2ccc(C#N)c(C(F)(F)F)c2)C(=O)N1CCNc1ccc(F)c2ncccc12 the Activity (CWR22R [1]) was “Dose-Dependent Effect”, the Activity [2] was “inactive” and the Activity [3] was “Non-Toxic”. For the same molecule, the Activity (CWR22R [4]) was “Active”, the Activity (CWR22R [5]) was “Active” and the Activity (CWR22R [6]) was “Active”. The Activity (CWR22R [7]) was “Active”, the IC50 (DU-145) was over 50000 nM and the Activity (CWR22R [8]) was “Dose-Dependent Effect”. For the same molecule, the Activity (CWR22R [9]) was “Active”, the Activity [10] was “Active” and the Activity (CWR22R [11]) was “Active”. For the same molecule, the AUC(0-inf) [12] was 2920 ng·h/mL, the Activity (CWR22R [13]) was “Active” and the Activity (CWR22R [14]) was “Active”. For the same molecule, the Activity (CWR22R [15]) was “Active”, the Activity (CWR22R [16]) was “Active” and the Activity (CWR22R [17]) was “Active”. For the same molecule, the Activity (CWR22R [18]) was “Active”, the Activity (CWR22R [19]) was “Active” and the Activity [20] was “Active”. For the same molecule, the Activity [21] was “Dose-Dependent Effect”, the DC50 (Androgen receptor) was 2640 nM and the MRT last [22] was 3.2 h. For the same molecule, the AUC(0-inf) [23] was 3470 ng·h/mL, the Activity (CWR22R [24]) was 50.6% and the Activity (CWR22R [25]) was “Active”. The Activity (CWR22R [26]) was 18.81% and the Activity [27] was “Non-Toxic”.
